Reference: patent publication US20260053931A1, “MDM2 TARGETING PROTACS” (THE WISTAR INSTITUTE OF ANATOMY AND BIOLOGY, priority 2023, published 2026)
pIC50: −log10 of the molar value.

Columns and labels:
Mdm2-VHL = Mdm2-VHL (Homo sapiens, UniProt P40337+Q00987); assay: AlphaScreen ternary complex formation; type: binding; settings: GST-MDM2 and HIS-VHL
Description: (§1) A. Chemical structure of MDM2-PROTAC. B-C. MDM2:p53 and MDM2:VHL-HIF1α peptide binding inhibition determined by homogeneous time-resolved fluorescence (HTRF, triplicate, mean±SEM, B) and surface plasmon resonance (SPR, triplicate, mean±SD, C. Binding assays by the indicated compounds. Graphical data is representative of 3 separate experiments. D. AlphaScreen of ternary complex using GST-MDM2 and HIS-VHL; mean±SD. E-F. Western blot analysis for the proteins indicated following a dose-titration (E, 16 hr) and time course (F, 6 μM) with the PROTAC or vehicle control (DMSO, −) in MDA-MB-231 (p53-mutant) and MDA-MB-436 (p53-delete) cells. G-K. Western blot analysis for the proteins indicated following treatment with the MDM2-PROTAC and/or the neddylation activating enzyme inhibitor MLN4924 G.

[1] = tested on: MDA-MB-231 and MDA-MB-436 TNBC xenografts; assay: TNBC xenografts in nude mice; type: in vivo, mouse
Procedure: A-G. MDA-MB-231 and MDA-MB-436 cells were injected (subcutaneous) into one flank of nude mice and allowed to form palpable tumors (approximately 80 mm^3). Mice (randomized into tumor-size matched groups) were treated (intraperitoneal injection) with MDM2-PROTAC YX-02-030, RG7112D, or vehicle control at 50 mg/kg once daily for 14 days (treatment start, green arrow and stop, red arrow). Kaplan-Meier survival analysis (A) and tumor volume (B; individual, left and averaged, right) were evaluated overtime. C-G, After 72 hr of treatment, tumors (n=3/group; −, vehicle control) were harvested and protein expression evaluated by Western blotting (C), Annexin-V positivity (D), Caspase-3 activity (E), apoptotic subG1 DNA content (F), and viability by Trypan Blue dye exclusion (G). Mean±SD (B (right), D-G). Log-rank tests for A, and longitudinal tumor growth analysis using 2-way ANOVA with Bonferroni correction for B; P-values indicated. *P<0.0021 for D, *P<0.0001 for E, *P<0.0147 for F, and *P<0.0014 for G were determined using unpaired two-tailed t-tests, comparing PROTAC to vehicle control.
Prior to testing YX-02-030 tumors in vivo, mouse liver microsome and pharmacokinetic (PK) studies were performed to determine its stability in vivo. […] Due to its stability in vivo, the effectiveness of YX-02-030 was then evaluated at killing TNBC tumors in mice. Xenografts of MDA-MB-231 and MDA-MB-436 TNBC cells grew to ˜80 mm^3, and then tumor size-matched mice were treated with YX-02-030, RG7112D control compound, or vehicle control. […] To confirm YX-02-030 was hitting its target (MDM2) in the TNBC tumors, tumors were harvested from a cohort of mice after 72 hours of YX-02-030 treatment. […] The toxicity of YX-2-228 was analyzed as compared to both the vehicle and YX-2-30. (FIGS. 25A & 25B).

MDA-MB-231 cells = assay: Proteomics analysis of degradation selectivity; type: cell-based, human; settings: 5 μM, 8 hours
Procedure: A proteomics analysis was performed to assess the selectivity of degradation by YX-02-030. MDA-MB-231 cells were treated for 8 hours with 5 μM of YX-02-030 or DMSO in triplicate and processed to provide 25 μg of protein loaded on a 10% acrylamide gel. The entire protein-containing gel regions were excised, digested with trypsin and analyzed by liquid chromatography tandem mass spectrometry (LC-MS/MS) using a 240-min gradient as described (Chae et al., 2016). Peptide sequences were identified using MaxQuant 1.6.3.3 (Cox & Mann, 2008). MS/MS spectra were searched against a UniProt human protein database. […] Under these experimental conditions Mdm2 was not able to be detected either in the treated or untreated samples.

OVCAR3 = assay: Cell death of other cancer cell lines: OVCAR3; type: cell-based; settings: Homo sapiens, OVCAR-3; OVCAR3, Ovarian
Procedure: (§2) The PROTACs prepared herein were tested for their use in other cancer cell lines to determine activity in multiple different types of cancer.

Cal27 = assay: Cell death of other cancer cell lines: Cal27; type: cell-based; settings: Homo sapiens, CAL-27; Cal27, Head & Neck
Procedure: as §2

Mdm2 = Mdm2 (Homo sapiens, UniProt Q00987); assay: Western blot of TNBC cells treated with PROTAC; type: cell-based; design: endogenous in cells; MDA-MB-231 (A9)
Chain of Mdm2 (Q00987 whole entry): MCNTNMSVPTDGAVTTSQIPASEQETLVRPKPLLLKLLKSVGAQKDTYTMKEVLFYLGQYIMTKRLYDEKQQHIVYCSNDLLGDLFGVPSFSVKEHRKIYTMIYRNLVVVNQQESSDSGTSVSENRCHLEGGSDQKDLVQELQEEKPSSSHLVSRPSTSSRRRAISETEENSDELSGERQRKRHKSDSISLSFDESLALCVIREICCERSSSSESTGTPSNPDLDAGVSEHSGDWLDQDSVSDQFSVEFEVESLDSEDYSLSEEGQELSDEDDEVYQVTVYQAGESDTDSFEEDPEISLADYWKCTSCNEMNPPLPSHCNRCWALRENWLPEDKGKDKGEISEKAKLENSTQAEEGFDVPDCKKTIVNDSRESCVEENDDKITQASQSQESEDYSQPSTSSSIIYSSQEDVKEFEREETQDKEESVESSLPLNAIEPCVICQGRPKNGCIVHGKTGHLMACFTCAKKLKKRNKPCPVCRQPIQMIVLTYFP
Description: as §1
PROTACs work by forming a ternary complex consisting of the target protein, the PROTAC, and the recruited E3 ubiquitin ligase-E2 complex, causing ubiquitination of the target protein, marking it for 26S proteasome-mediated degradation (Nalawansha & Crews, 2020). FIG. 19D confirms that the PROTAC forms a […] complex. […] Similarly, when the proteasome was inhibited with MG132, MDM2 protein levels were maintained despite YX-02-030 exposure (FIG. 19H). Therefore, YX-02-030 targets MDM2 protein for 26S proteasome-mediated degradation in TNBC cells and this requires the ubiquitin cascade.

non-cancerous cells = assay: Western blot and MTT assay, non-cancerous cells
VHL = VHL (Homo sapiens, UniProt P40337); assay: HTRF binding assay for VHL (Table 2)
Chain of VHL (P40337 whole entry): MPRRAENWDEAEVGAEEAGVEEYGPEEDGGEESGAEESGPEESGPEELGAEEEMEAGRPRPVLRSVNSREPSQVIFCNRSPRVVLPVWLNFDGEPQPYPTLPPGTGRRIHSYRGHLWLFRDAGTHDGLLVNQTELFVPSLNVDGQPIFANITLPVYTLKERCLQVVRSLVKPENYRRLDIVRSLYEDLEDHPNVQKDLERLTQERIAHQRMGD
Chain of VHL (Q15370 whole entry partner): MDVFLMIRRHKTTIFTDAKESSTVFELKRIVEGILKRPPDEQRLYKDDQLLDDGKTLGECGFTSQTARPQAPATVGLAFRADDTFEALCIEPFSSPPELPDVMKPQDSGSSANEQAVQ
Chain of VHL (Q15369 whole entry partner): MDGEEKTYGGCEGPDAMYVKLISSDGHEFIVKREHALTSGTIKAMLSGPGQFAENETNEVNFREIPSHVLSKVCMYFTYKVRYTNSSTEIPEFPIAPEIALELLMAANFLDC
Description: Biochemical assays in 384-well format have established to assess the binding of newly synthesized PROTACs to the appropriate E3 ligase using HTRF technology. In these assays an anti-HIS antibody conjugated to terbium was used as the donor fluor, and either a Cy5 labeled small molecule probe, or a biotinylated peptide that is bound to a streptavidin acceptor.

[2] = 50 mg/kg IP once daily for 14 days, compared to control mice

Chain of Mdm2-VHL (Q00987 whole entry): as the sequence (Q00987 whole entry) above
Chain of Mdm2-VHL (P40337 whole entry): as the sequence (P40337 whole entry) above
Chain of Mdm2-VHL (Q15370 whole entry partner): as the sequence (Q15370 whole entry partner) above
Chain of Mdm2-VHL (Q15369 whole entry partner): as the sequence (Q15369 whole entry partner) above

Structure (SMILES)	ternary complex formation (Mdm2-VHL)	mouse survival [1, 2]	tumor volume [1, 2]	mouse weight ([1]; nude mice, 50 mg/kg IP, 14 consecutive days)	MDM2 protein in tumors ([1]; tumors harvested after 72 hours of treatment)	observable proteins affected (MDA-MB-231 cells) [%]	proteins significantly changed out of 4237 (MDA-MB-231 cells) [proteins]	pIC50 (OVCAR3)	pIC50 (Cal27)	MDM2 protein level (Mdm2; MDA-MB-231 (mutated p53) and MDA-MB-436 (deleted p53), dose titration 16 hr, time course 6 μM)	VHL protein level (Mdm2; Western blot)	sensitivity of non-cancerous cells (non-cancerous cells)	pIC50 (VHL)
CCOc1cc(C(C)(C)C)ccc1C1=N[C@](C)(c2ccc(Cl)cc2)[C@](C)(c2ccc(Cl)cc2)N1C(=O)N1CCN(CC(=O)NCCOCCOCCOCC(=O)N[C@H](C(=O)N2C[C@H](O)C[C@H]2C(=O)NCc2ccc(-c3scnc3C)cc2)C(C)(C)C)CC1 (racemic) [YX-02-030]	efficiently form a ternary complex	significantly extended mouse survival	decreased tumor volume	mouse weight was maintained	loss of MDM2 protein	< 10	31	5.35	5.64	loss of MDM2 protein	not degraded	resistant	–
CCOc1cc(C(C)(C)C)ccc1C1=N[C@](C)(c2ccc(Cl)cc2)[C@](C)(c2ccc(Cl)cc2)N1C(=O)N1CCN(CC(=O)NCCCNC(=O)COc2ccc3c(c2)CN(C(=O)[C@H](NC(=O)[C@@H](C)NC)C(C)(C)C)[C@@H](C(=O)N[C@H]2CCCc4ccccc42)C3)CC1 [YX-02-228, (R)-7-(2-((3-(2-(4-((4R,5S)-2-(4-(tert-butyl)-2-ethoxyphenyl)-4,5-bis(4-chlorophenyl)-4,5-dimethyl-4,5-dihydro-1H-imidazole-1-carbonyl)piperazin-1-yl)acetamido)propyl)amino)-2-oxoethoxy)-2-((R)-3,3-dimethyl-2-((R)-2-(methylamino)propanamido)butanoyl)-N-((S)-1,2,3,4-tetrahydronaphthalen-1-yl)-1,2,3,4-tetrahydroisoquinoline-3-carboxamide]	–	–	–	–	–	–	–	–	–	–	–	–	< 5.00
